The values that follow come from patent US11739100B2, “2,3-dihydro-1h-imidazo{1,2-a}pyrimidin-5-one and this 1,2,3,4-tetrahydropyrimido{1,2-a}pyrimidin-6-one derivatives comprising a substituted morpholine, preparation thereof and pharmaceutical use thereof” (SANOFI, priority 2012, dated 2023).

This assay has as its target T1, recombinant Vps34 (Homo sapiens, UniProt Q8NEB9).
T1 construct: purchased Invitrogen PV5126
Kind of assay: Phosphorylation of phosphatidylinositol (PI) by Vps34 in vitro, ADP detected by TR-FRET (HTRF Transcreener ADP). It counts as biochemical. The following applies: 10 μM ATP, 55 μg/ml PI, approximately 3 nM Vps34, 1 hour at ambient temperature; absolute IC50, mean of two independent experiments; read-out: IC50 activity range. On the technique in general: Time-resolved FRET reads energy transfer from a long-lived donor to a nearby acceptor.

SMILES strings stand for the structures.

T1 sequence (Q8NEB9 whole entry): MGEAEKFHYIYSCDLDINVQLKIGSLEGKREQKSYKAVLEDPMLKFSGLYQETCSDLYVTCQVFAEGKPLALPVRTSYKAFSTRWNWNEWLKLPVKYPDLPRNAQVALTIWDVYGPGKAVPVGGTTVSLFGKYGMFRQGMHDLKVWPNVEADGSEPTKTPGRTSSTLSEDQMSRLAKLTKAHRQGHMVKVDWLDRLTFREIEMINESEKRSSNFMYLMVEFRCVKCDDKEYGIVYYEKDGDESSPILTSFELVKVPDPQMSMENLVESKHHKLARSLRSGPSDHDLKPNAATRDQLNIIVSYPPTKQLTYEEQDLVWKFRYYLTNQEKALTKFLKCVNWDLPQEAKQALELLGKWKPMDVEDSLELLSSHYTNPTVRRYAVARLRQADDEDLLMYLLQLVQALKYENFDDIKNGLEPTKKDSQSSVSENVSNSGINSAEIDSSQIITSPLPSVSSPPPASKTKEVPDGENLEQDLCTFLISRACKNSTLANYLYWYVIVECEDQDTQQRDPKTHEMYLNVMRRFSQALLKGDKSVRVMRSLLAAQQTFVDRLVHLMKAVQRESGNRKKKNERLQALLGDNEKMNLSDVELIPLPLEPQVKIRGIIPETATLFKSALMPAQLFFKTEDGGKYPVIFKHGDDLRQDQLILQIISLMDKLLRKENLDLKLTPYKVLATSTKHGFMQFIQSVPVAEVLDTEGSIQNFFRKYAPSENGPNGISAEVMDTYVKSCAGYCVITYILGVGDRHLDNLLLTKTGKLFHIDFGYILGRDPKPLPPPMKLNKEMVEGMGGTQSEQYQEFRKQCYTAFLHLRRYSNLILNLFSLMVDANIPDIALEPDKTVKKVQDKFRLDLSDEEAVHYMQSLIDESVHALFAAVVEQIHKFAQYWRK

As a reminder, the IC50 is the concentration at which inhibition is half-maximal. For `O=c1cc(N2CC3CCC(C2)O3)nc2n1CC[C@@H](C(F)(F)F)N2Cc1cnc(Cl)s1` [Example 165, (S)-9-(2-Chloro-thiazol-5-ylmethyl)-2-(8-oxa-3-aza-bicyclo[3.2.1]oct-3-yl)-8-trifluoromethyl-6,7,8,9-tetrahydro-pyrimido[1,2-a]-pyrimidin-4-one], the IC50 was 10 to 100 nM.
For `O=c1cc(N2CC3CCC(C2)O3)nc2n1CC[C@@H](C(F)(F)F)N2Cc1ccnn1C(F)F` [Example 166, (S)-9-(2-Difluoromethyl-2H-pyrazol-3-ylmethyl)-2-(8-oxa-3-aza-bicyclo[3.2.1]oct-3-yl)-8-trifluoromethyl-6,7,8,9-tetrahydro-pyrimido[1,2-a]-pyrimidin-4-one], the IC50 is 10 to 100 nM.
The same measure for `O=c1cc(N2CC3CCC(C2)O3)nc2n1CC[C@@H](C(F)(F)F)N2Cc1ccn(C(F)F)n1` [Example 167, (S)-9-(1-Difluoromethyl-1H-pyrazol-3-ylmethyl)-2-(8-oxa-3-aza-bicyclo[3.2.1]oct-3-yl)-8-trifluoromethyl-6,7,8,9-tetrahydro-pyrimido[1,2-a]-pyrimidin-4-one]: 10 to 100 nM; for `O=c1cc(N2CC3CCC(C2)O3)nc2n1CC[C@@H](C(F)(F)F)N2Cc1ccc(Cl)nc1` [Example 168, (S)-9-(6-Chloro-pyridin-3-ylmethyl)-2-(8-oxa-3-aza-bicyclo[3.2.1]oct-3-yl)-8-trifluoromethyl-6,7,8,9-tetrahydro-pyrimido[1,2-a]-pyrimidin-4-one]: 10 to 100 nM; for `O=c1cc(N2CC3CCC(C2)O3)nc2n1CC[C@@H](C(F)(F)F)N2Cc1ccon1` [Example 169, (S)-9-Isoxazol-3-yl-methyl-2-(8-oxa-3-azabicyclo[3.2.1]oct-3-yl)-8-trifluoromethyl-6,7,8,9-tetrahydro-pyrimido[1,2-a]-pyrimidin-4-one]: 10 to 100 nM.
The same measure for `O=C(CN1c2nc(N3CC4CCC(C3)O4)cc(=O)n2CC[C@H]1C(F)(F)F)c1cccnc1` [Example 170, (S)-2-(8-Oxa-3-aza-bicyclo[3.2.1]oct-3-yl)-9-(2-oxo-2-pyridin-3-ylethyl)-8-trifluoromethyl-6,7,8,9-tetrahydro-pyrimido[1,2-a]-pyrimidin-4-one]: 10 to 100 nM; for `O=C(CN1c2nc(N3CC4CCC(C3)O4)cc(=O)n2CC[C@H]1C(F)(F)F)c1ccccn1` [Example 171, (S)-2-(8-Oxa-3-aza-bicyclo[3.2.1]oct-3-yl)-9-(2-oxo-2-pyridin-2-ylethyl)-8-trifluoromethyl-6,7,8,9-tetrahydro-pyrimido[1,2-a]-pyrimidin-4-one]: 10 to 100 nM; for `C[C@H]1COCCN1c1cc(=O)n2c(n1)N(Cc1ccc(Cl)s1)[C@H](C(F)(F)F)CC2` [Example 178, (S)-9-(5-Chloro-thiophen-2-ylmethyl)-2-((S)-3-methyl-morpholin-4-yl)-8-trifluoromethyl-6,7,8,9-tetrahydro-pyrimido[1,2-a]-pyrimidin-4-one]: 10 to 100 nM.
Consider `C[C@@H]1COCCN1c1cc(=O)n2c(n1)N(CC(=O)c1ccccn1)[C@](C)(C(F)(F)F)C2` [Example 179, (S)-2-Methyl-7-((R)-3-methylmorpholin-4-yl)-1-(2-oxo-2-pyridin-2-ylethyl)-2-trifluoromethyl-2,3-dihydro-1H-imidazo[1,2-a]-pyrimidin-5-one], for which the IC50 was less than 10 nM.
The same measure for `C[C@@H]1COCCN1c1cc(=O)n2c(n1)N(CC(=O)c1cccnc1)[C@](C)(C(F)(F)F)C2` [Example 180, (S)-2-Methyl-7-((R)-3-methylmorpholin-4-yl)-1-(2-oxo-2-pyridin-3-ylethyl)-2-trifluoromethyl-2,3-dihydro-1H-imidazo[1,2-a]-pyrimidin-5-one]: less than 10 nM.
The same measure for `C[C@@H]1COCCN1c1cc(=O)n2c(n1)N(Cc1ccnc(Cl)c1)[C@](C)(C(F)(F)F)C2` [Example 181, (S)-1-(2-Chloro-pyridin-4-ylmethyl)-2-methyl-7-((R)-3-methylmorpholin-4-yl)-2-trifluoromethyl-2,3-dihydro-1H-imidazo[1,2-a]-pyrimidin-5-one]: less than 10 nM; for `C[C@@H]1COCCN1c1cc(=O)n2c(n1)N(Cc1cnco1)[C@](C)(C(F)(F)F)C2` [Example 182, (S)-2-Methyl-7-((R)-3-methylmorpholin-4-yl)-1-oxazol-5-ylmethyl-2-trifluoromethyl-2,3-dihydro-1H-imidazo[1,2-a]-pyrimidin-5-one]: 10 to 100 nM; for `C[C@@H]1COCCN1c1cc(=O)n2c(n1)N(Cc1cocn1)[C@](C)(C(F)(F)F)C2` [Example 183, (S)-2-Methyl-7-((R)-3-methylmorpholin-4-yl)-1-oxazol-4-ylmethyl-2-trifluoromethyl-2,3-dihydro-1H-imidazo[1,2-a]-pyrimidin-5-one]: less than 10 nM.
The same measure for `C[C@@H]1COCCN1c1nc2n(c(=O)c1F)C[C@@](C)(C(F)(F)F)N2Cc1ccnc(Cl)c1` [Example 184, (S)-1-(2-Chloro-pyridin-4-ylmethyl)-6-fluoro-2-methyl-7-((R)-3-methylmorpholin-4-yl)-2-trifluoromethyl-2,3-dihydro-1H-imidazo[1,2-a]-pyrimidin-5-one]: less than 10 nM.
For `CC(C)C(=O)CN1c2nc(N3CCOC[C@H]3C)c(F)c(=O)n2C[C@@]1(C)C(F)(F)F` [Example 185, (S)-6-Fluoro-2-methyl-7-((R)-3-methyl-morpholin-4-yl)-1-(3-methyl-2-oxobutyl)-2-trifluoromethyl-2,3-dihydro-1H-imidazo[1,2-a]-pyrimidin-5-one], the IC50 is less than 10 nM.
The same measure for `C[C@@H]1COCCN1c1nc2n(c(=O)c1F)C[C@@](C)(C(F)(F)F)N2CC(=O)C1CCOCC1` [Example 186, (S)-6-Fluoro-2-methyl-7-((R)-3-methyl-morpholin-4-yl)-1-[2-oxo-2-(tetrahydro-pyran-4-yl)ethyl]-2-trifluoromethyl-2,3-dihydro-1H-imidazo[1,2-a]-pyrimidin-5-one]: less than 10 nM; for `C[C@@H]1COCCN1c1nc2n(c(=O)c1F)C[C@@](C)(C(F)(F)F)N2CC(=O)C1CC1` [Example 187, (S)-1-(2-Cyclopropyl-2-oxoethyl)-6-fluoro-2-methyl-7-((R)-3-methylmorpholin-4-yl)-2-trifluoromethyl-2,3-dihydro-1H-imidazo[1,2-a]-pyrimidin-5-one]: less than 10 nM.
The same measure for `C[C@@H]1COCCN1c1nc2n(c(=O)c1F)C[C@@](C)(C(F)(F)F)N2CC(=O)c1cccnc1` [Example 189, (S)-6-Fluoro-2-methyl-7-((R)-3-methyl-morpholin-4-yl)-1-(2-oxo-2-pyridin-3-yl-ethyl)-2-trifluoromethyl-2,3-dihydro-1H-imidazo[1,2-a]-pyrimidin-5-one]: less than 10 nM; for `C[C@@H]1COCCN1c1cc(=O)n2c(n1)N(CC(=O)C1CCOCC1)[C@](C)(C(F)(F)F)C2` [Example 190, (S)-2-Methyl-7-((R)-3-methylmorpholin-4-yl)-1-[2-oxo-2-(tetrahydro-pyran-4-yl)ethyl]-2-trifluoromethyl-2,3-dihydro-1H-imidazo[1,2-a]-pyrimidin-5-one]: less than 10 nM.
On to `O=c1cc(N2CCOC(CF)C2)nc2n1CC[C@@H](C(F)(F)F)N2Cc1ccccc1` (stereo partly drawn) [Example 193, (S)-9-Benzyl-2-(2-fluoromethyl-morpholin-4-yl)-8-trifluoromethyl-6,7,8,9-tetrahydro-pyrimido[1,2-a]-pyrimidin-4-one], for which the IC50 was more than 100 nM.
In the case of `CON(C)C(=O)CN1c2nc(N3CCOC[C@H]3C)cc(=O)n2CC[C@H]1C(F)(F)F` [Example 196, N-Methoxy-N-methyl-2-[(S)-8-((R)-3-methyl-morpholin-4-yl)-6-oxo-2-trifluoromethyl-3,4-dihydro-2H,6H-pyrimido[1,2-a]-pyrimidin-1-yl]-acetamide] it was less than 10 nM; in that of `CONC(=O)CN1c2nc(N3CCOC[C@H]3C)cc(=O)n2CC[C@H]1C(F)(F)F` [Example 197, N-Methoxy-2-[(S)-8-((R)-3-methyl-morpholin-4-yl)-6-oxo-2-trifluoromethyl-3,4-dihydro-2H,6H-pyrimido[1,2-a]-pyrimidin-1-yl]-acetamide], 10 to 100 nM; in that of `C[C@@H]1COCCN1c1cc(=O)n2c(n1)N(c1ccncc1)[C@H](C(F)(F)F)CC2` [Example 198, (S)-2-((R)-3-Methyl-morpholin-4-yl)-9-pyridin-4-yl-8-trifluoromethyl-6,7,8,9-tetrahydro-pyrimido[1,2-a]-pyrimidin-4-one], less than 10 nM.
The same measure for `C[C@@H]1COCCN1c1nc2n(c(=O)c1F)C[C@@](C)(C(F)(F)F)N2CC(=O)c1ccccn1` [Example 199, (S)-6-Fluoro-2-methyl-7-((R)-3-methyl-morpholin-4-yl)-1-(2-oxo-2-pyridin-2-yl-ethyl)-2-trifluoromethyl-2,3-dihydro-1H-imidazo[1,2-a]-pyrimidin-5-one]: less than 10 nM; for `C[C@@H]1COCCN1c1cc(=O)n2c(n1)N(CC(C)(C)O)[C@](C)(C(F)(F)F)CC2` [Example 200, (S)-9-(2-Hydroxy-2-methylpropyl)-8-methyl-2-((R)-3-methylmorpholin-4-yl)-8-trifluoromethyl-6,7,8,9-tetrahydro-pyrimido[1,2-a]-pyrimidin-4-one]: less than 10 nM.
In the case of `CC(C)c1nc(CN2c3nc(N4CCOC[C@H]4C)cc(=O)n3CC[C@H]2C(F)(F)F)no1` [Example 201, (S)-9-(5-Isopropyl-[1,2,4]oxadiazol-3-yl-methyl)-2-((R)-3-methylmorpholin-4-yl)-8-trifluoromethyl-6,7,8,9-tetrahydro-pyrimido[1,2-a]-pyrimidin-4-one] it was less than 10 nM.
Turning to `C[C@@H]1COCCN1c1cc(=O)n2c(n1)N(Cc1noc(C3CC3)n1)[C@H](C(F)(F)F)CC2` [Example 202, (S)-9-(5-Cyclopropyl-[1,2,4]oxadiazol-3-yl-methyl)-2-((R)-3-methylmorpholin-4-yl)-8-trifluoromethyl-6,7,8,9-tetrahydro-pyrimido[1,2-a]-pyrimidin-4-one], the IC50 is less than 10 nM.
